Measured values: PubChem BioAssay AID2060361 (Molecular Pharmacology Branch, DTP, NCI, 2025)
pIC50: −log10 of the molar value.

Test system: 463943-066-T-J2-PDC tumor spheroids with HUVEC/MSC, viability
Assay: Anticancer human tumor 463943-066-T-J2-PDC patient-derived colon adenocarcinoma cell line growth inhibition [TAK]
Conditions: for pIC50: curve of first compound; for viability, T/C: stronger effect = lower value
Source text: Combinatorial screen of targeted agents with TAK-243 and ipatasertib in multi-cell type tumor spheroids
A high-throughput screen of multi-cell type tumor spheroids was designed to identify active combinations of targeted small molecules and TAK-243 or ipatasertib. Complex spheroids include a stromal component modeled by human endothelial cells (HUVEC) and fibroblasts modeled by human mesenchymal stem cells (MSCs). The concentration ranges selected for each drug and investigational agent were based upon clinically achievable concentrations if the clinical Cmax of the agent was known.
Compounds. The drugs and investigational agents: TAK-243 (785004), ipatasertib (767898), everolimus (733504), selumetinib (741078), bortezomib (756655), trametinib (758246), ixazomib (758254), vemurafenib (761431), dabrafenib (764134), sapanisertib (764658), alpelisib (765974), and copanlisib (816437), were obtained from the National Cancer Institute (NCI) Developmental Therapeutics Program Chemical Repository. The FDA-approved anticancer drug set is available from the NCI Developmental Therapeutics Program. […] The stock solutions were prepared in dimethyl sulfoxide (DMSO, Sigma-Aldrich, St. Louis, MO, cat. D2650) at 800-fold the tested concentration and stored at -70 degrees C prior to their use. All drugs and investigational agents were tested over a range starting from a high concentration at or near the clinical Cmax and decreasing in half-log increments. If the clinical Cmax for an agent had not been determined, the highest concentration tested was 10 microM.
NCI60 Cell Culture. NCI60 cell lines were obtained from the NCI Developmental Therapeutics Program Tumor Repository. For each lot of cells, the Repository performed Applied Biosystems AmpFLSTR Identifiler testing with PCR amplification to confirm consistency with the published Identifier STR profile for each cell line. Cells were kept in continuous culture for no more than 20 passages. The optimal seeding densities for each of the cell lines at each time point assessed were determined prior to performing the concentration response studies. Briefly, the NCI60 human tumor lines were grown as monolayers in RPMI 1640 medium supplemented with 10% FBS and 2 mmol/L L-glutamine.
An additional 2 lines were from the NCI60 cell line panel including melanomas, MALME-3M and SK-MEL-2. Pooled donor human umbilical vein endothelial cells (HUVEC, Lonza, cat. CC-2519) and human mesenchymal stem cells (hMSC, Lonza, cat. PT-2501) were purchased from Lonza (Walkersville, MD).
PDMR cell lines were grown in complete medium (DC medium): Dulbecco's modified Eagle's medium (DMEM)/F12 supplemented with 5% fetal bovine serum (FBS), 2 mM L-glutamine, 100 U/mL penicillin and 100 µg/ml streptomycin, 0.4 µg/ml hydrocortisone, 10 ng/ml epidermal growth factor (EGF) recombinant human protein, 24 µg/mL adenine, and 0.1 mg/mL primocin. During culture from frozen stock vials, PDMR cells were cultured in the same medium containing 10 µM Y-27632 (see Table 3). The PDCs were cultured in complete DMEM/F12 media without 10 microM Y-27632 dihydrochloride for at least two passages prior to the screen. The pooled donor HUVEC and hMSC were cultured in endothelial cell growth medium 2 (PromoCell, Heidelberg, Germany, cat. C-22011) and mesenchymal stem cell growth medium 2 (PromoCell, cat. C-28009), respectively. For all experiments, HUVEC and hMSC were used at passages </=5.
For the pre-screen, cell seeding densities were determined from a titration spanning the range from 5,000 to 313 cells per well. The mct-spheroids including 60% malignant cells, 25% HUVEC and 15% MSC dispensed as a mixture into U-bottom Ultra-Low Attachment 384-well plates (Corning, NY)
High-throughput Drug Combination Screening.
Prior to their inoculation into 384-well plates, malignant cells, HUVEC, and hMSC were removed from T flasks using TrypLE express (Thermo Fisher Scientific, cat. 12605036) and harvested by centrifugation for 5 min at 233 x g. […]
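Note: spheroids exposed to drugs for seven days.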
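Throughout, for viability, T/C: 100% = DMSO vehicle control wells.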

CC(C)CC(NC(=O)C(Cc1ccccc1)NC(=O)c1cnccn1)B(O)O (stereo not given) + CC(C)NCC(C(=O)N1CCN(c2ncnc3c2C(C)CC3O)CC1)c1ccc(Cl)cc1
pIC50 (second compound 0.3 µM): < 8.00 | pIC50 (second compound 0.949 µM): < 8.00 | pIC50 (second compound 3 µM): < 8.00 | pIC50 (second compound 9.49 µM): < 8.00 | pIC50 (second compound 30 µM): < 8.00 | viability, T/C (second compound 0.3 µM, first compound 31.6 pM): 98.3% | viability, T/C (second compound 0.3 µM, first compound 0.0001 µM): 99.2% | viability, T/C (second compound 0.3 µM, first compound 0.000316 µM): 92.3% | viability, T/C (second compound 0.3 µM, first compound 0.001 µM): 91.4% | viability, T/C (second compound 0.3 µM, first compound 0.00316 µM): 93.1% | viability, T/C (second compound 0.3 µM, first compound 0.01 µM): 84.1% | viability, T/C (second compound 0.949 µM, first compound 31.6 pM): 89.1% | viability, T/C (second compound 0.949 µM, first compound 0.0001 µM): 81.8% | viability, T/C (second compound 0.949 µM, first compound 0.000316 µM): 89.4% | viability, T/C (second compound 0.949 µM, first compound 0.001 µM): 84.3% | viability, T/C (second compound 0.949 µM, first compound 0.00316 µM): 85.2% | viability, T/C (second compound 0.949 µM, first compound 0.01 µM): 77.3% | viability, T/C (second compound 3 µM, first compound 31.6 pM): 90.5% | viability, T/C (second compound 3 µM, first compound 0.0001 µM): 96% | viability, T/C (second compound 3 µM, first compound 0.000316 µM): 97.3% | viability, T/C (second compound 3 µM, first compound 0.001 µM): 94.4% | viability, T/C (second compound 3 µM, first compound 0.00316 µM): 78.5% | viability, T/C (second compound 3 µM, first compound 0.01 µM): 81.8% | viability, T/C (second compound 9.49 µM, first compound 31.6 pM): 85.4% | viability, T/C (second compound 9.49 µM, first compound 0.0001 µM): 95.5% | viability, T/C (second compound 9.49 µM, first compound 0.000316 µM): 82.7% | viability, T/C (second compound 9.49 µM, first compound 0.001 µM): 88.9% | viability, T/C (second compound 9.49 µM, first compound 0.00316 µM): 82.7% | viability, T/C (second compound 9.49 µM, first compound 0.01 µM): 77% | viability, T/C (second compound 30 µM, first compound 31.6 pM): 88.2% | viability, T/C (second compound 30 µM, first compound 0.0001 µM): 85.3% | viability, T/C (second compound 30 µM, first compound 0.000316 µM): 91.4% | viability, T/C (second compound 30 µM, first compound 0.001 µM): 88.2% | viability, T/C (second compound 30 µM, first compound 0.00316 µM): 88.7% | viability, T/C (second compound 30 µM, first compound 0.01 µM): 70.2%

Cn1cnc2c(F)c(Nc3ccc(Br)cc3Cl)c(C(=O)NOCCO)cc21 + CC(C)NCC(C(=O)N1CCN(c2ncnc3c2C(C)CC3O)CC1)c1ccc(Cl)cc1
pIC50 (second compound 0.3 µM): < 5.52 | pIC50 (second compound 0.949 µM): < 5.52 | pIC50 (second compound 3 µM): < 5.52 | pIC50 (second compound 9.49 µM): < 5.52 | pIC50 (second compound 30 µM): < 5.52 | viability, T/C (second compound 0.3 µM, first compound 0.00949 µM): 102% | viability, T/C (second compound 0.3 µM, first compound 0.03 µM): 115% | viability, T/C (second compound 0.3 µM, first compound 0.0949 µM): 92.8% | viability, T/C (second compound 0.3 µM, first compound 0.3 µM): 78% | viability, T/C (second compound 0.3 µM, first compound 0.949 µM): 72.6% | viability, T/C (second compound 0.3 µM, first compound 3 µM): 54.6% | viability, T/C (second compound 0.949 µM, first compound 0.00949 µM): 101% | viability, T/C (second compound 0.949 µM, first compound 0.03 µM): 105% | viability, T/C (second compound 0.949 µM, first compound 0.0949 µM): 77.6% | viability, T/C (second compound 0.949 µM, first compound 0.3 µM): 69.2% | viability, T/C (second compound 0.949 µM, first compound 0.949 µM): 63.9% | viability, T/C (second compound 0.949 µM, first compound 3 µM): 62.3% | viability, T/C (second compound 3 µM, first compound 0.00949 µM): 90.4% | viability, T/C (second compound 3 µM, first compound 0.03 µM): 103% | viability, T/C (second compound 3 µM, first compound 0.0949 µM): 85.2% | viability, T/C (second compound 3 µM, first compound 0.3 µM): 76.2% | viability, T/C (second compound 3 µM, first compound 0.949 µM): 70.3% | viability, T/C (second compound 3 µM, first compound 3 µM): 58.4% | viability, T/C (second compound 9.49 µM, first compound 0.00949 µM): 102% | viability, T/C (second compound 9.49 µM, first compound 0.03 µM): 94.6% | viability, T/C (second compound 9.49 µM, first compound 0.0949 µM): 88.5% | viability, T/C (second compound 9.49 µM, first compound 0.3 µM): 79.8% | viability, T/C (second compound 9.49 µM, first compound 0.949 µM): 70.2% | viability, T/C (second compound 9.49 µM, first compound 3 µM): 67.1% | viability, T/C (second compound 30 µM, first compound 0.00949 µM): 103% | viability, T/C (second compound 30 µM, first compound 0.03 µM): 92.2% | viability, T/C (second compound 30 µM, first compound 0.0949 µM): 88.6% | viability, T/C (second compound 30 µM, first compound 0.3 µM): 71.7% | viability, T/C (second compound 30 µM, first compound 0.949 µM): 71.3% | viability, T/C (second compound 30 µM, first compound 3 µM): 60.1%
